According to US5733918A, “Condensed-Indan derivatives and pharmaceutically acceptable salts thereof” (Taiho Pharmaceutical Co., Ltd., priority 1994, dated 1998):
In brackets after ≈: the same amount, converted by molar mass.

How the values were obtained:
[1] = system: P388 mouse leukemia cells; test: Cytotoxicity against P388 mouse leukemia cells (crystal violet staining); type: cell-based; settings: 72 h, 3 days incubation, cell number reduced to 50% of control
Experimental: P388 mouse leukemia cells were plated into 96-well plate at the density of 2×10^3 cells/well. The compounds of the invention were dissolved in purified water or dimethylsulfoxide and the solution was diluted with medium to various concentrations and added to respective wells. After the plate was incubated for 3 days, the cultures were fixed with glutaraldehyde and the number of survived cells were determined by crystal violet staining method.

[2] = system: P388 mouse leukemia cells; test: Antineoplastic action: increase in life span of CDF1 mice bearing P388 mouse leukemia cells; type: in vivo; settings: P388, ip
Experimental: P388 mouse leukemia cells (1×10^6 cells/mouse) were injected intraperitoneally into CDF1 mouse. Each of the compound of the invention dissolved in 5% glucose or 5% dimethylsulfoxide at each of predetermined concentration was injected intraperitoneally on 1 and 5 days after injection. The antitumor activity thereof was evaluated as percentage of increase in life span (ILS %) compared to the mean survival of the untreated control group.

[3] = i.p. on 1 and 5 days after tumor injection, CDF1 mouse, vs untreated control

COc1ccc2c3c(c(NCCN(C)C)nc2c1)C(=O)c1ccccc1-3 [Compound 1-a]
IC50 [1]: 24 ng/mL (≈ 69.1 nM)
ILS at 100 mg/kg/day [2, 3]: 68%

CN(C)CCNc1nc2cc(F)ccc2c2c1C(=O)c1ccccc1-2.Cl.Cl [Compound 2, 6-(((dimethylamino)ethyl)amino)-3-fluoro-7H-indeno[2,1-c]quinoline-7-on dihydrochloride]
IC50 [1]: 4.8 ng/mL
ILS at 67 mg/kg/day [2, 3]: 85%

CN(C)CCNc1nc2cc(O)ccc2c2c1C(=O)c1ccccc1-2 [Compound 3-a]
ILS at 10 mg/kg/day ([2]; Mus musculus, read-out: Increase in life span (ILS %)): 94.4%

CCN(CC)CCNc1nc2cc(O)ccc2c2c1C(=O)c1ccccc1-2 [Compound 7]
IC50 [1]: 0.65 ng/mL (≈ 1.8 nM)
ILS at 44 mg/kg/day [2, 3]: 223%

CN1CCN(c2nc3cc(O)ccc3c3c2C(=O)c2ccccc2-3)CC1 [Compound 9-a]
IC50 [1]: 7.4 ng/mL (≈ 21.4 nM)
ILS at 150 mg/kg/day [2, 3]: 60%

CN(C)CCNc1nc2cc(O)ccc2c2c1C(=O)c1cc(Cl)ccc1-2 [Compound 23-a]
IC50 [1]: 0.11 ng/mL (≈ 0.299 nM)

O=C1c2ccccc2-c2c1c(NCCN1CCCC1)nc1cc(O)ccc21 [Compound 26-a]
IC50 [1]: 0.42 ng/mL (≈ 1.17 nM)
ILS at 30 mg/kg/day [2, 3]: 70.6%

CN(C)CCNc1nc2ccccc2c2c1C(=O)c1ccccc1-2 [Compound 28-a]
IC50 [1]: 2 ng/mL (≈ 6.3 nM)
ILS at 67 mg/kg/day [2, 3]: 180%

CN(C)CCNc1nc2ccc(O)cc2c2c1C(=O)c1ccccc1-2 [Compound 31-a]
IC50 [1]: 6 ng/mL (≈ 18 nM)
ILS at 30 mg/kg/day [2, 3]: 48.5%

CN(C)CCNc1nc2cc(N)ccc2c2c1C(=O)c1ccccc1-2 [Compound 41-a]
IC50 [1]: 11 ng/mL (≈ 33.1 nM)
ILS at 67 mg/kg/day [2, 3]: 306%

CN(C)CCNc1nc2ccccc2c2c1C(=O)c1cc(O)ccc1-2 [Compound 47-a]
IC50 [1]: 1.3 ng/mL (≈ 3.9 nM)
ILS at 44 mg/kg/day [2, 3]: 130%

CN(C)CCNc1nc2ccccc2c2c1C(=O)c1ccc(O)cc1-2 [Compound 49-a]
IC50 [1]: 2 ng/mL (≈ 6 nM)
ILS at 150 mg/kg/day [2, 3]: 66.7%

CN(C)CCNc1nc2cc(O)ccc2c2c1C(=O)c1cc(O)ccc1-2 [Compound 50-a]
IC50 [1]: 1.1 ng/mL (≈ 3.15 nM)
ILS at 20 mg/kg/day ([2]; dose 20 mg/kg/day, i.p. on 1 and 5 days after tumor injection, CDF1 mouse, vs untreated control): 45.2%

O=C1c2ccccc2-c2c1c(NCCNCCO)nc1cc(O)ccc21 [Compound 55]
IC50 [1]: 0.95 ng/mL (≈ 2.72 nM)

CNCCNc1nc2cc(O)ccc2c2c1C(=O)c1ccccc1-2.Cl.Cl.Cl [Compound 60, 6-(((methylamino)ethyl)amino)-3-hydroxy-7H-indeno[2,1-c]quinoline-7-on-trihydrochloride]
IC50 [1]: 0.66 ng/mL

CN(C)CCOc1nc2cc(O)ccc2c2c1C(=O)c1ccccc1-2 [Compound 62]
IC50 [1]: 0.3 ng/mL (≈ 0.897 nM)

CN(C)CCOc1nc2ccccc2c2c1C(=O)c1cc3c(cc1-2)OCO3 [Compound 64-a]
IC50 [1]: 0.87 ng/mL (≈ 2.4 nM)
ILS at 67 mg/kg/day [2, 3]: 153%

CN(C)CCNc1nc2ccccc2c2c1C(=O)c1cc3c(cc1-2)OCO3 [Compound 66-a]
IC50 [1]: 1.2 ng/mL (≈ 3.32 nM)
ILS at 44 mg/kg/day [2, 3]: 141%

CN(C)CCNc1nc2cc3c(cc2c2c1C(=O)c1ccccc1-2)OCO3 [Compound 73-a]
IC50 [1]: 13 ng/mL (≈ 36 nM)
ILS at 44 mg/kg/day [2, 3]: 129%

CN1CCN(c2nc3c(c4ccccc24)-c2ccccc2C3=O)CC1 [Compound 75, 6-(1-(4-methylpiperazinyl))-7H-indeno[2,1-c]isoquinoline-7-on]
IC50 [1]: 450 ng/mL (≈ 1370 nM)

CN(C)CCN(C)c1nc2c(c3ccccc13)-c1ccccc1C2=O [Compound 76]
IC50 [1]: 160 ng/mL (≈ 483 nM)
ILS at 100 mg/kg/day [2, 3]: 75%
